IC50 and Ki data for 16 compounds are collected here from ChEMBL document CHEMBL1909046, “DrugMatrix in vitro pharmacology data”.

Series [1] has as its target Mitogen-activated protein kinase 3 (Homo sapiens, UniProt P27361). Kind of series: DRUGMATRIX: Protein Serine/Threonine Kinase, ERK1 enzyme inhibition (substrate: Myelin Basic Protein). Further details: species or system Escherichia coli. The following applies: Not Active = under 50% inhibition at 10 µM.
The next series deals with T1, Thromboxane-A synthase (Homo sapiens, UniProt P24557).
T1 sequence (P24557 whole entry): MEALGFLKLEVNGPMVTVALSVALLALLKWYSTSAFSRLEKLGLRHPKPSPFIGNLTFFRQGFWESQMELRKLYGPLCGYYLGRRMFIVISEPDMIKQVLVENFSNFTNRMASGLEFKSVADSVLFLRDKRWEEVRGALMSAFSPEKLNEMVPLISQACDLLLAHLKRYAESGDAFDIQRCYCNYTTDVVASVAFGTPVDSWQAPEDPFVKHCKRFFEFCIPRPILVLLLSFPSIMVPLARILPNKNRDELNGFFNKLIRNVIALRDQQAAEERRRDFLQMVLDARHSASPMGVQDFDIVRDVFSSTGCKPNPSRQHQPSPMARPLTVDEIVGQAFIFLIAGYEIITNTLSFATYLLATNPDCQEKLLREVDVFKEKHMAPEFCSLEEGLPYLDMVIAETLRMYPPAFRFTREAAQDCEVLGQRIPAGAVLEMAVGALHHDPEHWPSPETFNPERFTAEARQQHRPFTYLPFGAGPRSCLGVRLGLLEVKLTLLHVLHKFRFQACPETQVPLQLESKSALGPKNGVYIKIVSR
Description: biochemical. In kind it is tissue-based, Platelet.

Series [2] addresses 5-hydroxytryptamine receptor 6 (Homo sapiens, UniProt P50406). The series is classed as cell membranes, HeLa, Membrane. The following applies: for Ki: read-out: Ki.
Series [3] concerns the target T2, Alpha-1B adrenergic receptor (Rattus norvegicus, UniProt P15823).
T2 sequence (P15823 whole entry): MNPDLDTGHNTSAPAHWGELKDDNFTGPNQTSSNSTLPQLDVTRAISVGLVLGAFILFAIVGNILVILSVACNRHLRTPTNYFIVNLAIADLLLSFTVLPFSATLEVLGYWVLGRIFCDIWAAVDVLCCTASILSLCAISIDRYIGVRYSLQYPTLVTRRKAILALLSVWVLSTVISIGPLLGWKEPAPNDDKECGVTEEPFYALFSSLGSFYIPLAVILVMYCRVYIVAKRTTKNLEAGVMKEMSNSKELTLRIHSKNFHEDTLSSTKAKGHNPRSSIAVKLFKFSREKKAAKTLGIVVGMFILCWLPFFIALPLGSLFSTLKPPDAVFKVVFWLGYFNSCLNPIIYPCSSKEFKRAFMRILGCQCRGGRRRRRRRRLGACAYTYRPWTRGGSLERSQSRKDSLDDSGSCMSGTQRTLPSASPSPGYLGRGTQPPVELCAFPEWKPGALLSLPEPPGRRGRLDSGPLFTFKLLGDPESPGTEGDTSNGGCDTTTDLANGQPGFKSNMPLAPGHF
Description: DRUGMATRIX: Alpha-1B adrenergic receptor radioligand binding (ligand: prazosin). The series is classed as cell membranes, Wistar, Liver, Membrane. The following applies: Not Active = under 50% inhibition at 10 µM.

In another series the target is Melanocortin receptor 3 (Homo sapiens, UniProt P41968). In kind it is cell membranes, HEK293, Membrane. The following applies: hek293. Also: in other assays of this panel Not Active means under 50% inhibition at 10 µM.
The target of the next series is Cytochrome P450 2E1 (Homo sapiens, UniProt P05181). The conditions noted are these: bti-tn-5b1-4. Also: in other assays of this panel Not Active means under 50% inhibition at 10 µM.
Series [4] can be described thus: DRUGMATRIX: GABAA, Flunitrazepam, Central radioligand binding (ligand: [3H] Flunitrazepam). The series is classed as cell membranes, Rattus norvegicus, Wistar, Brain, Membrane. The following applies: Not Active = under 50% inhibition at 10 µM.

A word on the IC50: it is the midpoint of a concentration-inhibition curve. As a reminder, the Ki is the equilibrium dissociation constant of an inhibitor or competing ligand from its target.

Chain of Melanocortin receptor 3 (P41968 whole entry): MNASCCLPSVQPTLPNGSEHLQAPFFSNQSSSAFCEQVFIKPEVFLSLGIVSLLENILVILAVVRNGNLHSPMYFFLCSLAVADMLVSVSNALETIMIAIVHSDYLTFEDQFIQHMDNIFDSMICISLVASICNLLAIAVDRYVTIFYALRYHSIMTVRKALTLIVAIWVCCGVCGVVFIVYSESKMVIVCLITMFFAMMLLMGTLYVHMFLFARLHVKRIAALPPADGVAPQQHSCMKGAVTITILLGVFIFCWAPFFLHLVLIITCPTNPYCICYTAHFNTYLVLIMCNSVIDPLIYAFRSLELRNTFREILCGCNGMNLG
Chain of Mitogen-activated protein kinase 3 (P27361 whole entry): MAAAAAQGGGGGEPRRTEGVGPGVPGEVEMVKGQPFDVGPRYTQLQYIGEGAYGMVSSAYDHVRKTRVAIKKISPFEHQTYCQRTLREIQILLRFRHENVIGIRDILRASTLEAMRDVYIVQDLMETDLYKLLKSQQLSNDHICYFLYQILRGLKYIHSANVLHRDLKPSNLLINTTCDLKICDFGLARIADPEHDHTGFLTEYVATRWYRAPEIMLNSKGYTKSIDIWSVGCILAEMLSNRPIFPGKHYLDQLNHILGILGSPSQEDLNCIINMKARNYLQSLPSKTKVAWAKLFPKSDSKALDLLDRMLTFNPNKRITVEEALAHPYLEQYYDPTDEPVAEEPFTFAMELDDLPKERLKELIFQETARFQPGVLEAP
Chain of Cytochrome P450 2E1 (P05181 whole entry): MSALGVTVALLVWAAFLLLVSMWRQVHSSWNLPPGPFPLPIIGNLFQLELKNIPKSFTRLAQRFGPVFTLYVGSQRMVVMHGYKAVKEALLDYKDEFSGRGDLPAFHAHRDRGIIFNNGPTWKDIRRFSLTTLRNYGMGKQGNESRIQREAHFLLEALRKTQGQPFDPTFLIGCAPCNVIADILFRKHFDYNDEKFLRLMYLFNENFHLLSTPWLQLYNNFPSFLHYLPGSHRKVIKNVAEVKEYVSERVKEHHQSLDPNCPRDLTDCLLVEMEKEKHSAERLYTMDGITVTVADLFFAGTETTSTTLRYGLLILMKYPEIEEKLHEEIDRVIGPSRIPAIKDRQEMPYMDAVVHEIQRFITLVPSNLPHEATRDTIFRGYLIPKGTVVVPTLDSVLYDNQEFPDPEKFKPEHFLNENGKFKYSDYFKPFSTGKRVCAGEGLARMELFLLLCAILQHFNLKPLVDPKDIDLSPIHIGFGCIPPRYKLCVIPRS
Chain of 5-hydroxytryptamine receptor 6 (P50406 whole entry): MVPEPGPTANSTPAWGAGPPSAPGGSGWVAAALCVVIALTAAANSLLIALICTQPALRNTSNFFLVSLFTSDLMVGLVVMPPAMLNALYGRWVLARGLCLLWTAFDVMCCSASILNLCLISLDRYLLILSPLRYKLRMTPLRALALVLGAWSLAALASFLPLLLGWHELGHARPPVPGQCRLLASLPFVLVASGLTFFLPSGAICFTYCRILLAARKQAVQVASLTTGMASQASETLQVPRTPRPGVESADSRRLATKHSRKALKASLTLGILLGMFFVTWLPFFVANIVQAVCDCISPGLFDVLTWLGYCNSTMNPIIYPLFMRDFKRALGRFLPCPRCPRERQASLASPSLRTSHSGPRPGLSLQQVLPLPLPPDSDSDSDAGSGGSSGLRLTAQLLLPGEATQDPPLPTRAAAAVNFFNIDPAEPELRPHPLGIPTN

For `CC(C)[C@H]1C(=O)N2CCC[C@H]2[C@]2(O)O[C@](NC(=O)[C@@H]3C=C4c5cccc6[nH]cc(c56)C[C@H]4N(C)C3)(C(C)C)C(=O)N12` [ERGOCORNINE], the IC50 result was “Not Active” in series [1]; 1990 nM on Thromboxane-A synthase (read-out: IC50); 15 nM in series [2] (read-out: IC50); 5.19 nM in series [3] (read-out: IC50); “Not Active” at Melanocortin receptor 3; “Not Active” at Cytochrome P450 2E1. In addition, in series [4], the IC50 entry is “Not Active”. Further, the Ki in series [2] is 7.09 nM; in series [3] (read-out: Ki), 2.87 nM; at Cytochrome P450 2E1 it was “Not Active”; in series [4], “Not Active”.

In the case of `OC(Cn1cncn1)(Cn1cncn1)c1ccc(F)cc1F` [FLUCONAZOLE], the IC50 result (in series [1]; against Thromboxane-A synthase (platelet); in series [2] (hela); in series [3]; against Melanocortin receptor 3; against Cytochrome P450 2E1) was “Not Active” in each case. Besides, the IC50 entry in series [4] is listed as “Not Active”. The Ki result (on Cytochrome P450 2E1; in series [4]) was “Not Active” each time.

Turning to `CC(C)C(=O)Nc1ccc([N+](=O)[O-])c(C(F)(F)F)c1` [FLUTAMIDE], the IC50 entry in series [1] was “Not Active”; at Thromboxane-A synthase (platelet), “Not Active”; in series [2] (read-out: IC50) it was 17800 nM; in series [3] it was “Not Active”; against Melanocortin receptor 3, “Not Active”; at Cytochrome P450 2E1 it was “Not Active”. The IC50 entry in series [4] was “Not Active”. The figures for the Ki (in series [2]; on Cytochrome P450 2E1; in series [4]) were 8270 nM, “Not Active” and “Not Active”, respectively.

With `CC1(C)O[C@@H]2C[C@H]3[C@@H]4CCC5=CC(=O)CC[C@]5(C)[C@@]4(F)[C@@H](O)C[C@]3(C)[C@]2(C(=O)CCl)O1` [HALCINONIDE], the IC50 result (in series [1]; at Thromboxane-A synthase (platelet); in series [2] (hela); in series [3]; against Melanocortin receptor 3; against Cytochrome P450 2E1) was “Not Active” each time. Also, in series [4], the IC50 entry was “Not Active”. The Ki result (at Cytochrome P450 2E1; in series [4]) was “Not Active” in each case.

In the case of `O=c1[nH]c(=O)n([C@H]2C[C@H](O)[C@@H](CO)O2)cc1I` [IDOXURIDINE], the IC50 result (in series [1]; on Thromboxane-A synthase (platelet); in series [2] (hela); in series [3]; against Melanocortin receptor 3; against Cytochrome P450 2E1) was “Not Active” in each case. In addition, the IC50 result in series [4] is reported as “Not Active”. For the same compound, the Ki entry (at Cytochrome P450 2E1; in series [4]) was “Not Active” throughout.

For `CC1Cc2ccccc2N1NC(=O)c1ccc(Cl)c(S(N)(=O)=O)c1` (configuration not stated) [INDAPAMIDE], the IC50 entry (in series [1]; at Thromboxane-A synthase (platelet); in series [2] (hela); in series [3]; against Melanocortin receptor 3; against Cytochrome P450 2E1) was “Not Active” each time. Moreover, the IC50 result in series [4] was “Not Active”. The Ki entry (on Cytochrome P450 2E1; in series [4]) was “Not Active” each time.

As to `Nc1nc(N)nc(-c2cc(Cl)ccc2Cl)n1.O=C(O)/C=C\C(=O)O` [IRSOGLADINE MALEATE], the IC50 entry (in series [1]; on Thromboxane-A synthase (platelet); in series [2] (hela); in series [3]; on Melanocortin receptor 3; against Cytochrome P450 2E1) was “Not Active” each time. For the same compound, in series [4], the IC50 entry is recorded as “Not Active”. In addition, the Ki entry (at Cytochrome P450 2E1; in series [4]) was “Not Active” in each case.

With `CCC(C)n1ncn(-c2ccc(N3CCN(c4ccc(OCC5COC(Cn6cncn6)(c6ccc(Cl)cc6Cl)O5)cc4)CC3)cc2)c1=O` (configuration not stated) [ITRACONAZOLE], the IC50 entry (in series [1]; against Thromboxane-A synthase (platelet); in series [2] (hela); in series [3]; against Melanocortin receptor 3; on Cytochrome P450 2E1) was “Not Active” in each case. Moreover, in series [4], the IC50 result was “Not Active”. For the same compound, the Ki result (at Cytochrome P450 2E1; in series [4]) was “Not Active” throughout.

In the case of `CCCCN1CCCC[C@H]1C(=O)Nc1c(C)cccc1C` [LEVOBUPIVACAINE], the IC50 result (in series [1]; on Thromboxane-A synthase (platelet); in series [2] (hela); in series [3]; against Melanocortin receptor 3; at Cytochrome P450 2E1) was “Not Active” each time. The IC50 result in series [4] is “Not Active”. For the same compound, the Ki result (on Cytochrome P450 2E1; in series [4]) was “Not Active” each time.

As for `CCCCc1nc(Cl)c(CO)n1Cc1ccc(-c2ccccc2-c2nnn[nH]2)cc1` [LOSARTAN], the IC50 entry (in series [1]; at Thromboxane-A synthase (platelet); in series [2] (hela); in series [3]; on Melanocortin receptor 3; against Cytochrome P450 2E1) was “Not Active” each time. Moreover, the IC50 result in series [4] was “Not Active”. Besides, the Ki entry (at Cytochrome P450 2E1; in series [4]) was “Not Active” throughout.

Turning to `Sc1ncnc2nc[nH]c12` [MERCAPTOPURINE ANHYDROUS], the IC50 entry (in series [1]; at Thromboxane-A synthase (platelet); in series [2] (hela); in series [3]; against Melanocortin receptor 3; on Cytochrome P450 2E1) was “Not Active” throughout. For the same compound, in series [4], the IC50 entry was “Not Active”. The Ki result (on Cytochrome P450 2E1; in series [4]) was “Not Active” in each case.

As for `C[C@](N)(Cc1ccc(O)c(O)c1)C(=O)O` [METHYLDOPA], the IC50 entry (in series [1]; at Thromboxane-A synthase (platelet); in series [2] (hela); in series [3]; against Melanocortin receptor 3; against Cytochrome P450 2E1) was “Not Active” each time. Also, the IC50 entry in series [4] is on record as “Not Active”. The Ki result (on Cytochrome P450 2E1; in series [4]) was “Not Active” in each case.

As for `C[C@]12CCC(=O)C=C1CC[C@@H]1[C@@H]2CC[C@@]2(C)[C@H]1CC[C@]2(C)O` [METHYLTESTOSTERONE], the IC50 entry (in series [1]; at Thromboxane-A synthase (platelet); in series [2] (hela); in series [3]; against Melanocortin receptor 3; on Cytochrome P450 2E1) was “Not Active” each time. Moreover, the IC50 result in series [4] is given as “Not Active”. The Ki entry (at Cytochrome P450 2E1; in series [4]) was “Not Active” throughout.

Consider `Cc1ccccc1N1C(=O)c2cc(S(N)(=O)=O)c(Cl)cc2NC1C` (configuration not stated) [METOLAZONE], for which the half-maximal inhibitory concentration (IC50) result (in series [1]; on Thromboxane-A synthase (platelet); in series [2] (hela); in series [3]; against Melanocortin receptor 3; at Cytochrome P450 2E1) was “Not Active” in each case. The IC50 entry in series [4] is given as “Not Active”. In addition, the Ki result (on Cytochrome P450 2E1; in series [4]) was “Not Active” each time.

`COCCc1ccc(OCC(O)CNC(C)C)cc1` (configuration not stated) [METOPROLOL]: the IC50 entry (in series [1]; at Thromboxane-A synthase (platelet); in series [2] (hela); in series [3]; at Melanocortin receptor 3; against Cytochrome P450 2E1) was “Not Active” in each case. In series [4], the IC50 result was “Not Active”. Further, the Ki result (at Cytochrome P450 2E1; in series [4]) was “Not Active” in each case.

Turning to `CCn1cc(C(=O)O)c(=O)c2cc(F)c(N3CCNCC3)cc21` [NORFLOXACIN], the IC50 result (in series [1]; against Thromboxane-A synthase (platelet); in series [2] (hela); in series [3]; on Melanocortin receptor 3; against Cytochrome P450 2E1) was “Not Active” in each case. Besides, in series [4], the IC50 entry was “Not Active”. In addition, the Ki result (on Cytochrome P450 2E1; in series [4]) was “Not Active” throughout.
